Two compounds from patent publication US20220111378A1, “METHODS AND SYSTEMS FOR DETERMINING TARGET SENSITIVITY TO A THERAPEUTIC FORMULA” (priority 2019, published 2022) can be followed below.

Assay [1] has as its system K. pneumoniae KpH201. The following applies: clinical isolate KpH201; breakpoint concentrations; confirmed by growth curves vs no-antibiotic control within approximately 20 minutes. As to the method: To prepare a spiked bacterial sample, 1 mL of an overnight culture was diluted into 25 mL of warm cation-adjusted Mueller Hinton broth, allowed to grow to log phase at 37 C in a shaking incubator, and counted using a hemocytometer. The bacteria were then diluted in additional warm broth to a final concentration of 1E5 to 8E5 CFU/mL. A 2-mL aliquot of the bacterial solution was added to a disposable 1-cm cuvette containing a pre-dispensed volume of water, diluent and antibiotic according to the experiment at hand. The fluids were mixed by pipetting. A no-antibiotic control was used in each experiment, which contained only the appropriate volume of water and diluent. A set of three cuvettes, such as in 41 or 43a, 43b or 43c, containing identical mixtures were assembled side-to-side into a three-centimeter light path and inserted into the prototype sensitivity module shown in FIGS. 2A and 2B. A total of four sets of cuvettes could be examined in the prototype at one time. The prototype maintains the cultures at 37 C with gentle agitation to mitigate the effects of bacterial settling. Optical transmissions through each set of cuvettes were taken every 5 seconds for the no-antibiotic control and the experimental cuvettes. […] The final curves were analyzed to determine whether the bacteria were sensitive or resistant to each drug or drug combination. […]

Assay [2] has as its system Enterococcus faecalis EfR100. Description: Growth curves at breakpoint concentrations compared with culture results (optical AST). The assay is classed as cell-based. Conditions: clinical isolate EfR100, confirmed by growth curves within approximately 33 minutes. The protocol:
(§1) To prepare a spiked bacterial sample, 1 mL of an overnight culture was diluted into 25 mL of warm cation-adjusted Mueller Hinton broth, allowed to grow to log phase at 37 C in a shaking incubator, and counted using a hemocytometer. The bacteria were then diluted in additional warm broth to a final concentration of 1E5 to 8E5 CFU/mL. A 2-mL aliquot of the bacterial solution was added to a disposable 1-cm cuvette containing a pre-dispensed volume of water, diluent and antibiotic according to the experiment at hand. The fluids were mixed by pipetting. A no-antibiotic control was used in each experiment, which contained only the appropriate volume of water and diluent. A set of three cuvettes, such as in 41 or 43a, 43b or 43c, containing identical mixtures were assembled side-to-side into a three-centimeter light path and inserted into the prototype sensitivity module shown in FIGS. 2A and 2B. A total of four sets of cuvettes could be examined in the prototype at one time. The prototype maintains the cultures at 37 C with gentle agitation to mitigate the effects of bacterial settling. Optical transmissions through each set of cuvettes were taken every 5 seconds for the no-antibiotic control and the experimental cuvettes. The bacteria were allowed to grow from 10 minutes to two hours depending on the antibiotics and/or bacteria being tested. The final curves were analyzed to determine whether the bacteria were sensitive or resistant to each drug or drug combination.
(§2) In the proof-of-concept device used to generate the data provided in this example, a 3-cm light path and lasers at 405 nm and 532 nm were used. Antimicrobial resistance profiles of 17 clinical isolates of 11 uropathogens were followed from 20 minutes to three hours, against 8 antibiotics, both lytic and static.

Assay [3] relates to Escherichia coli EcUAH202. Described as above. The class given is cell-based. The following applies: clinical isolate EcUAH202, confirmed for ampicillin and levofloxacin within approximately 7 minutes. The protocol:
as §1, §2

Assay [4] relates to Pseudomonas aeruginosa PaH201. Described as above. The assay is classed as cell-based. The following applies: clinical isolate PaH201, confirmed for ampicillin and ciprofloxacin within approximately 42 minutes. The protocol: as §1, §2
Assay [5] deals with Staphylococcus aureus SaR100. The description is as above. The following applies: clinical isolate SaR100, confirmed by growth curves within approximately 42 minutes. The assay is classed as cell-based. The protocol: as §1, §2
In assay [6] the test system is sterile urine sample spiked with clinical isolate EcUAH202. Conditions: EcUAH202 spiked into sterile urine; breakpoint concentrations; confirmed for ampicillin within approximately 5 minutes. As to the method: as §1, with “The bacteria were then diluted in additional warm broth to a final concentration of 1E5 to 8E5 CFU/mL.” left out, “combination. […]” for “combination.”

Assay [7] deals with Candida tropicalis CanTCDC345. Nature of the assay: Growth curves at breakpoint concentrations compared with culture results (optical AST). Conditions: clinical isolate CanTCDC345, confirmed for caspofungin within approximately 12 minutes. The assay is classed as cell-based. As to the method: as §1, §2

As to `CC1(C)S[C@@H]2[C@H](NC(=O)[C@H](N)c3ccccc3)C(=O)N2[C@H]1C(=O)O` [ampicillin], the “Culture results: sensitivity or resistance of the strain” value is “sensitivity” in assay [1]; “sensitivity” in assay [2]; “resistance” in assay [3]; “resistance” in assay [4]; “sensitivity” in assay [5]; “resistance” in assay [6].

Consider `CC[C@H](C)C[C@H](C)CCCCCCCCC(=O)N[C@H]1C[C@@H](O)[C@@H](NCCN)NC(=O)[C@@H]2[C@@H](O)CCN2C(=O)[C@H]([C@H](O)CCN)NC(=O)[C@H]([C@H](O)[C@@H](O)c2ccc(O)cc2)NC(=O)[C@@H]2C[C@@H](O)CN2C(=O)[C@H]([C@@H](C)O)NC1=O` [caspofungin], for which the “Culture results: sensitivity or resistance of the strain” value in assay [7] was “sensitivity”.
